# In patent US20220331322A1, “COMPOUND FOR INHIBITING CELL DEATH” (Christian-Albrechts-Universität zu Kiel, priority 2019, published 2022):
# System: L929 cells
# Experiment: TLR3-mediated cell death induced by poly (I:C) + zVAD
# Assay type: cell-based, murine
# Conditions: L929, 1 μg/ml poly (I:C) + 25 μM zVAD, 24 h; primidone 1 mM, Nec-1s 20 μM
# Source text: Cell death was induced by activation of the Toll-like receptor 3 (TLR3). TLR3 is mainly expressed on immune cells, where it senses pathogen-associated molecular patterns and initiates innate immune response. The TLR3 agonist poly (I:C) was developed to mimic pathogens infection and boost immune system activation. In experimental models, poly (I:C) is known to induce regulated cell death in cells expressing TLR3. To examine whether primidone also blocks TLR3-mediated cell death, murine L929 cells were stimulated for 24 h at 37° C. with vehicle (a), 1 μg/ml of the TLR3 ligand poly (I:C) alone (b) or in combination with 25 μM zVAD (c). In addition, cells were stimulated with 1 μg/ml poly (I:C), 25 μM zVAD and 20 μM Nec-1s (d) and with 1 μg/ml poly (I:C), 25 μM zVAD and 1 mM primidone (e).
smiles,measurement,value
"CCC1(c2ccccc2)C(=O)NCNC1=O [primidone, 5-Ethyl-5-phenyl-1,3-diazinane-4,6-dione]",Protection from RIPK1-mediated cell death induced by poly (I:C) and zVAD,effectively protect cells
